From patent US20260200928A1, “THERAPEUTIC COMPOUNDS” (Sanofi, priority 2022, published 2026)

Biological target: T1, human IL-17A (Homo sapiens, UniProt Q16552)
T1 construct: purchased R&D Systems 7955-IL/CF
T1 sequence (Q16552 24-155): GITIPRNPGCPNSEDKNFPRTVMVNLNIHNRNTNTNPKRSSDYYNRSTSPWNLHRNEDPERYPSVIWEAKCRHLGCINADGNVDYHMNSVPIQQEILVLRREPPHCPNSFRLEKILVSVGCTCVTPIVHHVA
Experiment: IL-17A AlphaLISA competition assay (block of IL-17A binding to its receptor IL-17RA)
Settings: mean IC50 (n≥2), block of IL-17A binding to IL-17RA
Method in brief: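 Human recombinant IL-17A (7.5 nM stock) pre-incubated 30 min at RT with compound, then IL-17RA/Fc (5 nM stock) added for 90 min; AlphaLISA read with anti-Fc acceptor beads, biotinylated anti-IL-17A antibody (5 nM) and streptavidin donor beads (3 h, dark). IC50 from 4-parameter logistic fit, normalised to DMSO and 4 μM reference inhibitor; n≥2.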

## CC(C)(C)OC(=O)N1CCn2c(ccc2C(=O)N[C@H](C(=O)Nc2cc(CN3C[C@@H](C(F)(F)F)NC3=O)ccn2)[C@H]2CC[C@H](C)CC2)C1 [Example 7, Tert-butyl 6-(((S)-1-((1r,4S)-4-methylcyclohexyl)-2-oxo-2-((4-(((S)-2-oxo-4-(trifluoromethyl)imidazolidin-1-yl)methyl)pyridin-2-yl)amino)ethyl)-carbamoyl)-3,4-dihydropyrrolo[1,2-a]pyrazine-2(1H)-carboxylate]
  IC50: 407 nM

## CC(C)n1nccc1C(=O)N[C@H](C(=O)Nc1cc(C[C@H]2C[C@@H](C(F)(F)F)NC2=O)ccn1)[C@H]1CC[C@H](C)CC1 [Example 156, 1-isopropyl-N—((S)-1-((1r,4S)-4-methylcyclohexyl)-2-oxo-2-((4-(((3S,5S)-2-oxo-5-(trifluoromethyl)pyrrolidin-3-yl)methyl)pyridin-2-yl)amino)ethyl)-1H-pyrazole-5-carboxamide]
  IC50: 53 nM

## C[C@H]1CC[C@H]([C@H](NC(=O)NCc2ccccc2)C(=O)Nc2cc(CN3C[C@@H](C(F)(F)F)NC3=O)ccn2)CC1 [Example 97, (S)-2-(3-Benzylureido)-2-((1r,4S)-4-methylcyclohexyl)-N-(4-(((S)-2-oxo-4-(trifluoromethyl)imidazolidin-1-yl)methyl)pyridin-2-yl)acetamide]
  IC50: 2080 nM

## N-((S)-1-(4,4-difluorocyclohexyl)-2-oxo-2-((4-(2-((S)-2-oxo-4-(trifluoromethyl)imidazolidin-1-yl)propan-2-yl)pyridin-2-yl)amino)ethyl)-1-isopropyl-1H-pyrazole-5-carboxamide [Example 175]
  IC50: 384 nM

## COC[C@H](c1ccnc(NC(=O)[C@@H](NC(=O)C(C)c2cccc(C#N)c2)C2CCC(F)(F)CC2)c1)N1C[C@@H](C(F)(F)F)NC1=O (stereo partly drawn) [Example 205, 2-(3-cyanophenyl)-N-((S)-1-(4,4-difluorocyclohexyl)-2-((4-((S)-2-methoxy-1-((S)-2-oxo-4-(trifluoromethyl)imidazolidin-1-yl)ethyl)pyridin-2-yl)amino)-2-oxoethyl) propanamide]
  IC50: 347 nM

## COCC(NC(=O)CCC(F)(F)F)c1ccnc(NC(=O)[C@@H](NC(=O)c2nonc2C2CC2)C2CCC(F)(F)CC2)c1 (single isomer, unassigned) [Example 134]
  IC50: 1250 nM

## CC1(C)CN(Cc2ccnc(NC(=O)[C@@H](NC(=O)c3nonc3C3CC3)[C@H]3CC[C@H](C)CC3)c2)C(=O)N1 [Example 25, 4-Cyclopropyl-N—((S)-2-((4-((4,4-dimethyl-2-oxoimidazolidin-1-yl)methyl)pyridin-2-yl)amino)-1-((1r,4S)-4-methylcyclohexyl)-2-oxoethyl)-1,2,5-oxadiazole-3-carboxamide]
  IC50: 105 nM

## N-((S)-2-((4-((S)-1-(5,5-difluoro-2-oxotetrahydropyrimidin-1(2H)-yl)-2-methoxyethyl)pyridin-2-yl)amino)-1-(4,4-difluorocyclohexyl)-2-oxoethyl)-4-ethyl-1,2,5-oxadiazole-3-carboxamide [Example 183]
  IC50: 42 nM

## CC(C)n1nccc1C(=O)N[C@H](C(=O)Nc1cc(C(NC(=O)CCC(F)(F)F)C2CC2)ccn1)C(C1CC1)C1CC1 (single isomer, unassigned) [Example 43]
  IC50: 171 nM

## C[C@H]1CC[C@H]([C@@H](NC(=O)OCc2ccccc2)C(=O)Nc2cc(CN3C[C@H](C(F)(F)F)NC3=O)ccn2)CC1 [Example 5, Benzyl ((S)-1-((1r,4S)-4-methylcyclohexyl)-2-oxo-2-((4-(((S)-2-oxo-4-(trifluoromethyl)imidazolidin-1-yl)methyl)pyridin-2-yl)amino)ethyl)carbamate]
  IC50: 179 nM

## O=C(N[C@H](C(=O)Nc1cc(CN2C[C@@H](C(F)(F)F)NC2=O)ccn1)C1CCC(F)(F)CC1)c1nonc1C1CC1 [Example 8, 4-cyclopropyl-N-((S)-1-(4,4-difluorocyclohexyl)-2-oxo-2-((4-(((S)-2-oxo-4-(trifluoromethyl)imidazolidin-1-yl)methyl)pyridin-2-yl)amino)ethyl)-1,2,5-oxadiazole-3-carboxamide]
  IC50: 141 nM

## COC[C@H](c1ccnc(NC(=O)[C@@H](NC(=O)c2ccnn2C)C2CCC(F)(F)CC2)c1)N1C[C@@H](C(F)(F)F)NC1=O [Example 202, N-((S)-1-(4,4-difluorocyclohexyl)-2-((4-((S)-2-methoxy-1-((S)-2-oxo-4-(trifluoromethyl)imidazolidin-1-yl)ethyl)pyridin-2-yl)amino)-2-oxoethyl)-1-methyl-1H-pyrazole-5-carboxamide]
  IC50: 70 nM

## CC(C)(C)OC(=O)N[C@H](C(=O)Nc1cc(CN2C[C@@H](C(F)(F)F)NC2=O)ccn1)C(C1CC1)C1CC1 [Example 104, Tert-butyl ((S)-1,1-dicyclopropyl-3-oxo-3-((4-(((S)-2-oxo-4-(trifluoro-methyl)imidazolidin-1-yl)methyl)pyridin-2-yl)amino)propan-2-yl)carbamate]
  IC50: 938 nM

## CC(C)c1oncc1C(=O)N[C@H](C(=O)Nc1cc(C[C@H]2C[C@@H](C(F)(F)F)NC2=O)ccn1)C1CCC(F)(F)CC1 [Example 219, N-((S)-1-(4,4-difluorocyclohexyl)-2-oxo-2-((4-(((3S,5S)-2-oxo-5-(trifluoromethyl)pyrrolidin-3-yl)methyl)pyridin-2-yl)amino)ethyl)-5-isopropylisoxazole-4-carboxamide]
  IC50: 80 nM

## C[C@H]1CC[C@H]([C@H](NC(=O)C2(F)CC2)C(=O)Nc2cc(CN3C[C@@H](C(F)(F)F)NC3=O)ccn2)CC1 [Example 67, 1-fluoro-N-((S)-1-((1r,4S)-4-methylcyclohexyl)-2-oxo-2-((4-(((S)-2-oxo-4-(trifluoromethyl)imidazolidin-1-yl)methyl)pyridin-2-yl)amino)ethyl)cyclopropane-1-carboxamide]
  IC50: 809 nM

## C[C@H]1CC[C@H]([C@H](NC(=O)c2nonc2C2CC2)C(=O)Nc2cc(C(CO)N3C[C@@H](C(F)(F)F)NC3=O)ccn2)CC1 (single isomer, unassigned) [Example 233, 4-Cyclopropyl-N-((1S)-2-((4-((R or S)-2-hydroxy-1-((S)-2-oxo-4-(trifluoro-methyl)imidazolidin-1-yl)ethyl)pyridin-2-yl)amino)-1-((1r,4S)-4-methylcyclohexyl)-2-oxoethyl)-1,2,5-oxadiazole-3-carboxamide]
  IC50: 9 nM

## CC(C)n1nccc1C(=O)N[C@H](C(=O)Nc1cc(CN2C[C@@H](C(F)(F)F)NC2=O)ccn1)C1CCC(F)(F)CC1 [Example 12, N-((S)-1-(4,4-difluorocyclohexyl)-2-oxo-2-((4-(((S)-2-oxo-4-(trifluoromethyl)imidazolidin-1-yl)methyl)pyridin-2-yl)amino)ethyl)-1-isopropyl-1H-pyrazole-5-carboxamide]
  IC50: 106 nM

## COC[C@H](c1ccnc(NC(=O)C(NC(=O)c2nocc2OCC(F)F)C2CCC(F)CC2)c1)N1C[C@@H](C(F)(F)F)NC1=O (single isomer, unassigned) [Example 281]
  IC50: 117 nM

## CCc1nonc1C(=O)N[C@H](C(=O)Nc1cc(C[C@H]2C[C@@H](C(F)(F)F)NC2=O)ccn1)C1CCC(F)(F)CC1 [Example 220, N-((S)-1-(4,4-difluorocyclohexyl)-2-oxo-2-((4-(((3S,5S)-2-oxo-5-(trifluoromethyl)pyrrolidin-3-yl)methyl)pyridin-2-yl)amino)ethyl)-4-ethyl-1,2,5-oxadiazole-3-carboxamide]
  IC50: 48 nM

## CC[C@H](c1ccnc(NC(=O)[C@@H](NC(=O)c2nonc2C2CC2)C2CCC(F)(F)CC2)c1)N1C[C@@H](C(F)(F)F)NC1=O [Example 212, 4-cyclopropyl-N-((S)-1-(4,4-difluorocyclohexyl)-2-oxo-2-((4-((R)-1-((S)-2-oxo-4-(trifluoromethyl)imidazolidin-1-yl)propyl)pyridin-2-yl)amino)ethyl)-1,2,5-oxadiazole-3-carboxamide]
  IC50: 23 nM

## CC(C)n1nccc1C(=O)NC(C(=O)Nc1cc(C(NC(=O)CCC(F)(F)F)C2CC2)ccn1)C1CCC(F)(F)CC1 (stereo not shown) [Example 48, N-(2-((4-(cyclopropyl(4,4,4-trifluorobutanamido)methyl)pyridin-2-yl)amino)-1-(4,4-difluorocyclohexyl)-2-oxoethyl)-1-isopropyl-1H-pyrazole-5-carboxamide]
  IC50: 229 nM

## CCc1nocc1C(=O)NC(C(=O)Nc1cc(CC2=C[C@@H](C(F)(F)F)NC2=O)ccn1)C1CCC(F)(F)CC1 (stereo in doubt) [Example 216, N-((1S)-1-(4,4-difluorocyclohexyl)-2-oxo-2-((4-((2-oxo-5-(trifluoromethyl)-2,5-dihydro-1H-pyrrol-3-yl)methyl)pyridin-2-yl)amino)ethyl)-3-ethylisoxazole-4-carboxamide]
  IC50: 137 nM

## COCC(c1ccnc(NC(=O)C(NC(=O)C(F)(F)c2ccc(OC)nc2)C2CCC(C)CC2)c1)N1CC(C(F)(F)F)NC1=O (single isomer, unassigned) [Example 252]
  IC50: 49 nM

## CCc1nocc1C(=O)N[C@@H](COC(C)(C)C(F)(F)F)C(=O)Nc1cc([C@@H](COC)N2C[C@@H](C(F)(F)F)NC2=O)ccn1 [Example 267, 3-ethyl-N-((S)-1-((4-((S)-2-methoxy-1-((S)-2-oxo-4-(trifluoromethyl)imidazolidin-1-yl)ethyl)pyridin-2-yl)amino)-1-oxo-3-((1,1,1-trifluoro-2-methylpropan-2-yl)oxy)propan-2-yl)isoxazole-4-carboxamide]
  IC50: 27 nM

## O=C(N[C@H](C(=O)Nc1cc(C(C2CC2)N2C[C@@H](C(F)(F)F)NC2=O)ccn1)C1CCC(F)(F)CC1)c1nonc1C1CC1 (single isomer, unassigned) [Example 162, 4-Cyclopropyl-N—((S)-2-((4-((R or S)-cyclopropyl((S)-2-oxo-4-(trifluoromethyl)imidazolidin-1-yl)methyl)pyridin-2-yl)amino)-1-(4,4-difluorocyclohexyl)-2-oxoethyl)-1,2,5-oxadiazole-3-carboxamide]
  IC50: 444 nM
